Bounds are passed on as bounds.

T1 sequence (C7FF04 1-392 limits assumed): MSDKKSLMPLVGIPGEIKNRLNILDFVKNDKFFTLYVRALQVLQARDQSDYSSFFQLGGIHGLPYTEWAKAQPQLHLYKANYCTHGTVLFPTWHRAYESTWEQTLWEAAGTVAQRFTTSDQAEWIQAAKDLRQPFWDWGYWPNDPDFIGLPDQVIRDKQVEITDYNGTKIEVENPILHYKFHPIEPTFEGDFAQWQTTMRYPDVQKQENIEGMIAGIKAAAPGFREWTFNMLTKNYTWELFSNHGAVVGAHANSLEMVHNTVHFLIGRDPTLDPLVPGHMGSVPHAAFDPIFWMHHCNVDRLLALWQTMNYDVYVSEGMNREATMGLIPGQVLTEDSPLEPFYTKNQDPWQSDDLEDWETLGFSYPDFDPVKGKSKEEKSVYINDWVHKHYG

One experiment deals with MDA-MB-231 (human breast adenocarcinoma). The experiment is described as follows: MTT antiproliferative assay, MDA-MB-231. Particulars: MTT, 72 h, MDA-MB-231 cells; read-out: IC50 ± SD MDA-MB-231. Type of experiment: cell-based. The protocol:
(§1) All cell lines were obtained from ATCC, and all chemicals were purchased from Sigma-Aldrich, St. Louis, MO, USA. […] All media were supplemented with antibiotic and antimycotic solutions, according to the manufacturers’ instructions. MTT cytotoxicity assessments were performed as described previously. […] The cells counted using an automated cell counter (Countess® II FL, Invitrogen by Thermo Fisher Scientific Inc., Waltham, MA, USA) were plated in 96-well plates (Nunc Edge 2F, Thermo Fisher Scientific Inc.) at a density of 0.1 × 10^4 per well. After an additional 72 h, cells underwent an MTT cytotoxicity assay (see below). The IC50 values were calculated using ED50plus v 1.0 freeware software (Instituto Nacional de Enfermedades Respiratorias, Mexico City, Mexico). Each cell line was tested in three independent replicates.
(§2) After the incubation time was complete, the medium was removed and crystals of formazan were solubilized in pure isopropanol. The absorbance readout was conducted immediately using a plate reader, Multiskan Spectrum, at 570 nm (Thermo Fisher Scientific Inc., Waltham, MA, USA). The background optical density was measured in the wells filled with the culture medium, without any cells.
Turning to “2-(2-(1,2-Dicarba-closo-Dodecaboranylmethylene)Hydrazinyl)-4-(4-Fluorphenyl)Thiazole [4c]”, the IC50 is 6.02 ± 0.08 µM.
The same measure, in the same setting: the figure for “2-(2-(1,2-Dicarba-closo-Dodecaboranylmethylene)Hydrazinyl)-4-(4-Methoxyphenyl)Thiazole [4f]” is 7.32 ± 1.26 µM.

Staying with this experiment, now noted: selectivity index = IC50 normal cell line / IC50 cancer cell line.
For the substance “2-(2-(1,2-Dicarba-closo-Dodecaboranylmethylene)Hydrazinyl)-4-(4-Fluorphenyl)Thiazole [4c]”, the “SI HUVEC/ MDA-MB-231” value came out at 1.25.
On to “2-(2-(1,2-Dicarba-closo-Dodecaboranylmethylene)Hydrazinyl)-4-(4-Methoxyphenyl)Thiazole [4f]”, for which the “SI HUVEC/ MDA-MB-231” value is greater than 1.37.

Another experiment addresses T1, mushroom tyrosinase (Agaricus bisporus, UniProt C7FF04).
T1 construct: purchased Sigma-Aldrich
The experiment in a line: Kinetic analysis of the inhibition of tyrosinase (Lineweaver-Burk). The class given is biochemical. Particulars: Lineweaver-Burk plots; compound at 0.05 mM. The protocol:
A series of experiments were performed to determine the inhibition kinetics of compounds by following the already reported method. The inhibitor concentrations for compounds were 50 and 100 µM. The substrate L-DOPA concentration was between 100 and 250 µM in all kinetic studies. Maximal initial velocity was determined from the initial linear portion of absorbance up to ten minutes after the addition of the enzyme. The inhibition type of the enzyme, Michaelis constant (KM), and maximal velocity (Vmax) were determined by Lineweaver–Burk plots of the inverse of velocities (1/V) versus the inverse of substrate concentration 1/[L-DOPA] mM^−1.
Take “2-(2-(1,2-Dicarba-closo-Dodecaboranylmethylene)Hydrazinyl)-4-(4-Fluorphenyl)Thiazole [4c]”: the “Mechanism of Inhibition” value is reported as “Activator”.
The same measure, in the same setting: the entry for “2-(2-(1,2-Dicarba-closo-Dodecaboranylmethylene)Hydrazinyl)-4-(4-Methoxyphenyl)Thiazole [4f]” is “tyrosinase activator”.

Staying with this experiment, now noted: compound at 0.05 mM; L-DOPA 100-250 µM.
Regarding “2-(2-(1,2-Dicarba-closo-Dodecaboranylmethylene)Hydrazinyl)-4-(4-Fluorphenyl)Thiazole [4c]”, the maximal velocity (Vmax) was 0.0810 mM/min.
Turning to “2-(2-(1,2-Dicarba-closo-Dodecaboranylmethylene)Hydrazinyl)-4-(4-Methoxyphenyl)Thiazole [4f]”, the Vmax is given as 0.1472 mM/min.

In the next experiment the test system is A172 (human brain glioblastoma). The experiment in a line: MTT antiproliferative assay, A172. Type of experiment: cell-based. The note with it: MTT, 72 h, A172 cells; read-out: IC50 ± SD A172. The protocol:
as §1, §2
Consider “2-(2-(1,2-Dicarba-closo-Dodecaboranylmethylene)Hydrazinyl)-4-(4-Fluorphenyl)Thiazole [4c]”, for which the IC50 was 7.1 ± 1.9 µM.
As for “2-(2-(1,2-Dicarba-closo-Dodecaboranylmethylene)Hydrazinyl)-4-(4-Methoxyphenyl)Thiazole [4f]”, the IC50 was greater than 10 µM.

The same experiment, now with this note: selectivity index = IC50 normal cell line / IC50 cancer cell line.
With “2-(2-(1,2-Dicarba-closo-Dodecaboranylmethylene)Hydrazinyl)-4-(4-Fluorphenyl)Thiazole [4c]”, the “SI HUVEC/A172” value was determined as 1.06.

The subject of a further experiment is B16F10 (murine melanoma). The experiment is described as follows: MTT antiproliferative assay, B16F10. The class given is cell-based. The note with it: MTT, 72 h, B16F10 cells; read-out: IC50 ± SD B16F10. As for the experimental part:
as §1, §2
Take “2-(2-(1,2-Dicarba-closo-Dodecaboranylmethylene)Hydrazinyl)-4-(4-Fluorphenyl)Thiazole [4c]”: the IC50 is 5.57 ± 0.39 µM.
On the same count and under the same terms, the figure for “2-(2-(1,2-Dicarba-closo-Dodecaboranylmethylene)Hydrazinyl)-4-(4-Methoxyphenyl)Thiazole [4f]” is 5.81 ± 0.82 µM.

Still in this experiment, the particulars now being: selectivity index = IC50 normal cell line / IC50 cancer cell line.
In the case of “2-(2-(1,2-Dicarba-closo-Dodecaboranylmethylene)Hydrazinyl)-4-(4-Fluorphenyl)Thiazole [4c]”, the “SI HUVEC/ B16F10” value stood at 1.35.
Still for that read-out and setting: then “2-(2-(1,2-Dicarba-closo-Dodecaboranylmethylene)Hydrazinyl)-4-(4-Methoxyphenyl)Thiazole [4f]”, with greater than 1.72.

For another experiment, the target named is T2, 11β-HSD1 (Homo sapiens, UniProt P28845).
T2 construct: tissue XenoTech Lot No. 1410013; host or cells: pooled human liver microsomes
T2 sequence (P28845 whole entry): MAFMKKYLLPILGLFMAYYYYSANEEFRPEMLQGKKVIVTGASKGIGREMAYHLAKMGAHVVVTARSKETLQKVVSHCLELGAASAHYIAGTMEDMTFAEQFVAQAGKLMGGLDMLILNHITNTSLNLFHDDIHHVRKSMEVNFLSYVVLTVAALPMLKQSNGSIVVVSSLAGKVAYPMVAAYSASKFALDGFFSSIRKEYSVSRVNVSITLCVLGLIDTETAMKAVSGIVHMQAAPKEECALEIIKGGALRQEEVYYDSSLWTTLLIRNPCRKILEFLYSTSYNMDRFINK
The experiment in a line: Inhibition of 11β-HSD1 assay (cortisone to cortisol, microsomes, cortisol ELISA). The note with it: 5 inhibitor concentrations, three independent determinations; read-out: IC50 ± SD 11β-HSD1. Type of experiment: biochemical. As for the experimental part: L160706125, was obtained from Cloud-Clone Corp. PBS, Lot No. H161008, was obtained from Pan Biotech. […] L191113457, was obtained from Cloud-Clone Corp. […] The microplates were incubated on an orbital shaker for 150 min at 37 °C. […] The quantity of cortisol formed from cortisone was determined using a cortisol ELISA kit, […].
With “2-(2-(1,2-Dicarba-closo-Dodecaboranylmethylene)Hydrazinyl)-4-(4-Fluorphenyl)Thiazole [4c]”, the IC50 came to 8.1 ± 2 µM.
Regarding “2-(2-(1,2-Dicarba-closo-Dodecaboranylmethylene)Hydrazinyl)-4-(4-Methoxyphenyl)Thiazole [4f]”, the IC50 was found to be 9.35 ± 1.85 µM.

The same experiment, now with this note: inhibitor 10 µM, 150 min, 37 °C.
With “2-(2-(1,2-Dicarba-closo-Dodecaboranylmethylene)Hydrazinyl)-4-(4-Fluorphenyl)Thiazole [4c]”, the “% of 11β-HSD1 Inhibition 10 μM” value is 55.74%.
Still for that read-out and setting: then “2-(2-(1,2-Dicarba-closo-Dodecaboranylmethylene)Hydrazinyl)-4-(4-Methoxyphenyl)Thiazole [4f]”, with 55.54%.

The experiment is the same for the next values; noted with them: values in SAR summary, unit inferred; read-out: IC50 11β-HSD1 (unit inferred).
In the case of “2-(2-(1,2-Dicarba-closo-Dodecaboranylmethylene)Hydrazinyl)-4-(4-Fluorphenyl)Thiazole [4c]”, the IC50 was in the range of 7.9 to 8.1 µM.

The target in the next experiment is T1, mushroom tyrosinase. The experiment in a line: Mushroom tyrosinase inhibition assay (L-DOPA, dopachrome 475 nm). The note with it: L-DOPA 0.17 mM, pH 6.8, room temperature; read-out: IC50 ± SD mushroom tyrosinase. Type of experiment: biochemical. The protocol:
The mushroom tyrosinase (Sigma-Aldrich) inhibition was performed following previously reported methods. […] The inhibitor solutions were prepared in DMSO with an initial concentration of 1 mM. Different aliquots were added to the solution containing the buffer, L-DOPA, and EDTA, with the enzyme being added last. […] Ascorbic acid was used as a reference inhibitor with an initial concentration of 1 mM. The IC50 values were calculated from the equation generated via exponential fit of the experimental data.
Consider “2-(2-(1,2-Dicarba-closo-Dodecaboranylmethylene)Hydrazinyl)-4-(4-Fluorphenyl)Thiazole [4c]”, for which the IC50 came to 143 ± 9.38 µM.
“2-(2-(1,2-Dicarba-closo-Dodecaboranylmethylene)Hydrazinyl)-4-(4-Methoxyphenyl)Thiazole [4f]”: the IC50 is 49.4 ± 8.01 µM.

For a further experiment, the system named is HUVEC (human umbilical vein endothelial cells). The experiment in a line: MTT antiproliferative assay, HUVEC healthy control. Type of experiment: cell-based. The note with it: 72 h, HUVEC normal cells, read-out: IC50 ± SD HUVEC. As for the experimental part:
All cell lines were obtained from ATCC, and all chemicals were purchased from Sigma-Aldrich, St. Louis, MO, USA. Briefly, cells were cultivated in a controlled atmosphere using DMEM medium with fetal bovine serum (FBS) at a final concentration of 10% (A-172), an L15 medium with 15% FBS, cultivated without CO2 (MDA-MB-231), F12K with a heparin final concentration of 0.1 mg/mL, endothelial cell growth supplement with a final concentration of 0.03 mg/mL (HUVEC), and RPMI with 5% FBS. All media were supplemented with antibiotic and antimycotic solutions, according to the manufacturers’ instructions. MTT cytotoxicity assessments were performed as described previously. Briefly, cell lines A172, B16F10, MDA-MB-231, and HUVEC were seeded 24 h prior to the addition of the tested compounds. The cells counted using an automated cell counter (Countess® II FL, Invitrogen by Thermo Fisher Scientific Inc., Waltham, MA, USA) were plated in 96-well plates (Nunc Edge 2F, Thermo Fisher Scientific Inc.) at a density of 0.1 × 10^4 per well. After an additional 72 h, cells underwent an MTT cytotoxicity assay (see below). The IC50 values were calculated using ED50plus v 1.0 freeware software (Instituto Nacional de Enfermedades Respiratorias, Mexico City, Mexico). Each cell line was tested in three independent replicates.
Twenty microliters of an MTT solution (MTT: 3-(4,5-dimethylthiazol-2-yl)-2,5-diphenyl tetrazolium bromide, stock solution: 5 mg/mL) was added to each cell line for 2 h (A172, B16F10, MDA-MB-231, and HUVEC). After the incubation time was complete, the medium was removed and crystals of formazan were solubilized in pure isopropanol. The absorbance readout was conducted immediately using a plate reader, Multiskan Spectrum, at 570 nm (Thermo Fisher Scientific Inc., Waltham, MA, USA). The background optical density was measured in the wells filled with the culture medium, without any cells.
Consider “2-(2-(1,2-Dicarba-closo-Dodecaboranylmethylene)Hydrazinyl)-4-(4-Fluorphenyl)Thiazole [4c]”, for which the concentration for half-maximal inhibition (IC50) was determined as 7.51 ± 0.64 µM.
As for “2-(2-(1,2-Dicarba-closo-Dodecaboranylmethylene)Hydrazinyl)-4-(4-Methoxyphenyl)Thiazole [4f]”, the concentration for half-maximal inhibition (IC50) was greater than 10 µM.

In the next experiment the target is T3, 11β-HSD2 (Homo sapiens, UniProt P80365).
T3 construct: Human kidney microsomes, mixed gender, 0.5 mL, 10 mg/mL, Lot No. 1710160, were obtained from XenoTech; tissue XenoTech Lot No. 1710160; host or cells: human kidney microsomes
T3 sequence (P80365 1-405): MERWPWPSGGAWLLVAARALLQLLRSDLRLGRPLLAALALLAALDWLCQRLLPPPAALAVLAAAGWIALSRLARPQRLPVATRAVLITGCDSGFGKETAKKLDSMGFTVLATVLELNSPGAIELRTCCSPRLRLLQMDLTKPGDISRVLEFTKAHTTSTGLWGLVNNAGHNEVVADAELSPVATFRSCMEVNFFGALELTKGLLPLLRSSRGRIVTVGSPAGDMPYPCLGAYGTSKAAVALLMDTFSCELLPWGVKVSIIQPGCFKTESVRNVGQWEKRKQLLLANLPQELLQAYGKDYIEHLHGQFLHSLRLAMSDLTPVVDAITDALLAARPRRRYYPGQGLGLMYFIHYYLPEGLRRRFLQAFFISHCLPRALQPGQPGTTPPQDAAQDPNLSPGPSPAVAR
The experiment in a line: Inhibition of 11β-HSD2 assay (cortisol to cortisone, microsomes, cortisol ELISA). Type of experiment: biochemical. The note with it: inhibitor 10 µM, 150 min, 37 °C. As for the experimental part:
The Enzyme-Linked Immunosorbent Assay (ELISA) Kit for 11-Beta-Hydroxysteroid Dehydrogenase Type 1, Lot No. L160706125, was obtained from Cloud-Clone Corp. PBS, Lot No. H161008, was obtained from Pan Biotech. […] The Enzyme-Linked Immunosorbent Assay (ELISA) Kit for 11-Beta-Hydroxysteroid Dehydrogenase Type 2, Lot No. L191113457, was obtained from Cloud-Clone Corp.
The oxidation reaction of cortisol to cortisone was carried out on 96-well microtiter plates in the presence of the enzyme 11β-HSD2 in a total volume of 100 µL. To this end, 60 µL of phosphate buffer (pH 7.4), 10 µL of a microsomes(0.12 µg/mL […]) solution in PBS (final quantity 2.5 µg), 20 µL of substrate mixture cortisol/NAD (final concentration 200 nM/2 mM), and 10 µL of the appropriate inhibitor solution (solvent DMSO/water 1/99, final concentration 10 µM) were placed in each well. The microplates were incubated on an orbital shaker for 150 min at 37 °C. […] The quantity of unreacted cortisol was determined using a cortisol ELISA kit DiaMetra.
On to “2-(2-(1,2-Dicarba-closo-Dodecaboranylmethylene)Hydrazinyl)-4-(4-Fluorphenyl)Thiazole [4c]”, for which the “% of 11β-HSD2 Inhibition 10 μM” value was found to be 21.70%.
On the same count and under the same terms, then “2-(2-(1,2-Dicarba-closo-Dodecaboranylmethylene)Hydrazinyl)-4-(4-Methoxyphenyl)Thiazole [4f]”, with 29.25%.

The values above are taken from article PMC11477717, “Synthesis of Carborane–Thiazole Conjugates as Tyrosinase and 11β-Hydroxysteroid Dehydrogenase Inhibitors: Antiproliferative Activity and Molecular Docking Studies” (Molecules, 2024).
